Results as given in patent US20230073301A1, “TISSUE DOSING FOR INTRALUMINAL LOCAL DRUG DELIVERY” (ISOLA THERAPEUTICS, INC., priority 2020, published 2023).
Several values for one entry are separate records, joined by “and”; a condition that tells them apart may be missing. Equal values may be shown once. Read-outs that look alike come from different tables or passages of the source. Each block holds one compound with its values, some of them ahead of it.

Assays:
[1] = GMX001 plasma PTX concentration after systemic infusion (LC/MS); type: in vivo, porcine; settings: pig; for concentration at 3 h: systemic infusion 175 mg/m^2 over 3 hours; for Cmax: iv, 175 mg/m2, systemic
Method: The systemic studies were denoted GMX001 and local administration studies GMX002.
For GMX001 (systemic), anatomy permitting, 2 animals were used and divided into a 3 hour animal and a 72 hour animal.
(§1) For GMX001, both animals underwent surgery to place two (2) CVL catheters, 1 for infusion and 1 for plasma collection. The animals were allowed to recover and stabilize.

[2] = GMX001 colon tissue PTX concentration after systemic infusion; type: in vivo, porcine; settings: 3 hour animal 19P0837; for concentration at 3 h: pig, intravenous, 4.28 mg/kg/hr, Colon PTX concentration
Excerpt: Three samples each were taken from the rectum, transverse (tran) colon, ascending (asc) colon, descending (desc) colon and colon lymph nodes (LN).

[3] = GMX002 plasma PTX concentration after local lung lavage; type: in vivo, porcine
Method: For GMX002 (local), anatomy permitting, 2 animals were divided into a 20 minute animal and a 72 hour animal.
The necropsy for tissue collection was completed to obtain information on the drug concentration within the lung and lung lymph nodes.
The chronic (72 hour) animal in the study was recovered with blood plasma samples collected immediately after infusion, followed by additional blood plasma collection occurring at 5, 15, and 30 minutes following infusion. More blood plasma was collected after 1, 3, 5, 9, 24, and 72 hours. The necropsy for tissue collection took place 72 hours after infusion with drug concentration measurements in the lung and lung lymph nodes. Histopathology was done on the lung.
Animal 19P0844 was infused with 700 mL. Animal 19P1241 was infused with approximately 900 mL.
Animal 19P1241 had 2 mL of blood collected at baseline and at 5, 10, 15 and 20 minutes of infusion. Plasma was collected for processing. Animal 19P0884 had 2 mL of blood collected at baseline, 5, 10, 15 and 20 minutes of infusion. Following infusion, blood was collected at 5, 15, 30 minutes with more blood being collected after 1, 3, 5, 9, 24, and 72 hours.

[4] = GMX002 lung tissue PTX concentration after local lung lavage; type: in vivo, porcine; settings: for concentration at 20 min: pig
Method: A blood sample was also collected at 0, 5, 10, 15, and 20 minutes.
(§2) Spectra were compared to the validated protocol and standard curve generated for the study.
The acute animal (19P1241) and the chronic animal (19P0884) were sent to necropsy for gross pathology and tissue harvesting. Three full thickness lung tissue sample from each of the cranial (cran) caudal (caud) and middle (mid) lobes of the untreated left lung and three lung tissue samples from each of the cranial (cran) caudal (caud) and middle (mid) lobes of the treated right lung were taken from the 20 minute animal, frozen and sent for analytical analysis.

[5] = type: in vivo, porcine
Method: as §1
Animal 19P0837 had 2 mL of blood collected at baseline and after the 3 hours infusion. […] Blood was processed and sent to Analytical for processing. […] The animal survived to the scheduled term with signs of discomfort as per technician's observations. The animal had blisters on the chest at day 3, prior to term.
Gross examination of the lungs, colon, jejunum, regional lymph nodes, and collateral structures was conducted. […] Lungs were also slightly heavy. […] Small intestine appeared bloated diffusely. The lumen of darkened jejunum section appeared mottled dark purple to black. There were no other abnormal findings noted at necropsy.

in vivo [6] = settings: pig, intravenous
Excerpt: (§3) The necropsy for tissue collection after the last plasma sample focused on drug concentration and included: lung, lung lymph nodes, colon, and the colon lymph nodes.
as §2
(§4) The acute animal (19P0837) and the chronic animal (19P0997) were sent to necropsy for gross pathology and tissue harvesting. Three full thickness lung tissue samples from each of the cranial (cran) caudal (caud) and middle (mid) lobes were frozen and sent for analytical analysis.

[7] = GMX001 lung and lung lymph node PTX concentration after systemic infusion
Excerpt: as §3, §2, §4

[8] = Animal experiment, first pig: systemic paclitaxel, plasma and lung tissue concentration
Method: (§5) A first pig was given 4.28 mg/kg/hr of paclitaxel systemically, i.e., intravenously over three hours. […] Next, the lung tissue in a second pig was saturated with paclitaxel via the airways by an endoluminal approach. […] The drug solution dwelled in the airways of the second animal for approximately 20 minutes to ensure saturation of the lung tissue before being evacuated from the airways.

[9] = Animal experiment, second pig: endoluminal airway paclitaxel, lung tissue concentration; settings: soaking solution 75.8 μM in airways, approximately 20 minutes dwell
Method: as §5

[10] = humans, cited from earlier work
[11] = Porcine local levofloxacin: pathology and side effects; type: in vivo
Method: (§6) Porcine studies were performed similarly to as described in Example A but using levofloxacin as the drug agent. Only local administration to the lung was performed.

[12] = pig, in vivo
Method: as §6

[13] = humans; systemic administration; cited from earlier work
in vivo [14] = settings: pig
Method: as §6

[15] = local lavage of right lung, 20 min, animal 19P1241
[16] = lung tissue (RT mid lung), 175 mg/m^2
[17] = systemic, 3 hour animal 19P0837
[18] = systemic, 72 hour animal 19P0997

Compound: CC(=O)O[C@H]1C(=O)[C@@]2(C)[C@H]([C@H](OC(=O)c3ccccc3)[C@]3(O)C[C@H](OC(=O)[C@H](O)[C@@H](NC(=O)c4ccccc4)c4ccccc4)C(C)=C1C3(C)C)[C@]1(OC(C)=O)CO[C@@H]1C[C@@H]2O [PTX, 5β,20-Epoxy-1,2α,4,7β,10β,13α-hexahydroxytax-11-en-9-one 4,10-diacetate 2-benzoate 13-ester with (2R,3S)-N-benzoyl-3-phenylisoserine]
concentration at 3 h ([1]; intravenous, 175 mg/m^2, Blood PTX concentration, animal 19P0837, 3 hr): 57000 ng/mL
concentration at 3 h ([1]; intravenous, 175 mg/m^2, Blood PTX concentration, animal 19P0997, 3 hr): 67100 ng/mL
concentration at 4 h ([1]; intravenous, 175 mg/m^2, Blood PTX concentration, systemic infusion, animal 19P0997, 4 hr): 43100 ng/mL
concentration at 6 h ([1]; intravenous, 175 mg/m^2, Blood PTX concentration, systemic infusion, animal 19P0997, 6 hr): 28500 ng/mL
concentration at 8 h ([1]; intravenous, 175 mg/m^2, Blood PTX concentration, systemic infusion, animal 19P0997, 8 hr): 27100 ng/mL
concentration at 12 h ([1]; intravenous, 175 mg/m^2, Blood PTX concentration, systemic infusion, animal 19P0997, 12 hr): 20500 ng/mL
concentration at 24 h ([1]; intravenous, 175 mg/m^2, Blood PTX concentration, systemic infusion, animal 19P0997, 24 hr): 9110 ng/mL
concentration at 72 h ([1]; intravenous, 175 mg/m^2, Blood PTX concentration, systemic infusion, animal 19P0997, 72 hr): 713 ng/mL
Cmax ([1]; 3 hour animal): 57000 ng/mL
Cmax ([1]; 72 hour animal): 67100 ng/mL
Colon PTX concentration, asc colon [2]: 16900 ng/g and 13200 ng/g
Colon PTX concentration, colon LN [2]: 12700 ng/g and 17700 ng/g
Colon PTX concentration, desc colon [2]: 12700 ng/g and 12800 ng/g
Colon PTX concentration, rectum [2]: 14100 ng/g and 16000 ng/g
Colon PTX concentration, tran colon [2]: 14600 ng/g and 13200 ng/g
concentration at 3 h ([2]; ascending colon, asc colon): 10800 ng/g
concentration at 3 h ([2]; colon lymph nodes, colon LN): 19600 ng/g
concentration at 3 h ([2]; descending colon, desc colon): 12500 ng/g
concentration at 3 h ([2]; rectum): 14400 ng/g
concentration at 3 h ([2]; transverse colon, tran colon): 13500 ng/g
plasma Cmax local / systemic ([3]; […]57000 ng/mL): 0.048%
plasma Cmax local / systemic ([3]; […]67100 ng/mL): 0.041%
plasma Cmax for local administration as % of plasma Cmax with systemic administration ([3]; local vs systemic): less than 0.05%
plasma Cmax lower with local than with systemic administration ([3]; local vs systemic): more than 2000 fold
time of peak plasma concentration after end of lung infusion ([3]; local, 32,000 ng/mL, after the lung was cleared of the drug): 5 min
time of peak concentration of PTX in plasma after infusion initiation ([3]; local, 72 hour animal 19P0844): 25
Cmax ([3]; pig, plasma, other: local lung lavage (right lung, via catheter), 32000 ng/mL (lavage solution), local, 5 minutes post local infusion, read-out: maximum concentration in plasma (Cmax)): 27.6 ng/mL
Lung PTX concentration, RT caud lung [4, 15]: 35300 ng/g tissue and 29800 ng/g tissue
Lung PTX concentration, RT cran lung [4, 15]: 32100 ng/g tissue and 38400 ng/g tissue
Lung PTX concentration, RT Mid Lung ([4]; local lavage of right lung, 20 min, animal 19P1241, middle lobe believed blocked): 760 ng/g tissue and 557 ng/g tissue
lower drug concentration with local vs systemic administration for same lung tissue uptake ([4]; local vs systemic): 37 fold
concentration at 20 min ([4]; lung tissue, other: local lung lavage (right lung, via catheter), 32000 ng/mL (lavage solution), PTX in lung tissue achieved, local administration (GMX002)): > 30000 ng/g
concentration at 20 min ([4]; lung tissue, other: local lung lavage (right lung, via catheter), 32000 ng/mL (lavage solution), PTX per g of lung tissue, local, acute animal): ~32000 ng/g
concentration at 20 min ([4]; lung tissue, other: local lung lavage (right lung, via catheter), 32000 ng/mL (lavage solution), highest PTX level in lung tissue, local administration): 38400 ng/g
concentration at 20 min ([4]; lung, caudal lobe of the treated right lung, 32000 ng/mL, Lung PTX concentration, RT Caud Lung, local lavage of right lung, 20 min, animal 19P1241): 34600 ng/g
concentration at 20 min ([4]; lung, middle lobe of the treated right lung, 32000 ng/mL, Lung PTX concentration, RT Mid Lung, local lavage of right lung, 20 min, animal 19P1241, middle lobe believed blocked): 749 ng/g
early mortality ([5]; GMX001): no early mortality
distress with infusion ([5]; pig, in vivo): showed distress
terminal clinical pathology ([5]; pig, in vivo): decrease in WBC, neutrophils, lymphocytes and platelet counts
early mortality (GMX002): no early mortality
Clinical observations (pig, in vivo): GMX002: Unremarkable
Physical examination (pig, in vivo): GMX002: Unremarkable
adverse events / clinical observations (pig, in vivo): did not have any adverse events
distress or complications during administration (pig, in vivo): did not show signs of distress or complications
gross necropsy findings (pig, in vivo): no other abnormal findings noted at necropsy that could be attributed to the treatment
terminal clinical pathology (pig, in vivo): clinical markers comparable to baseline
concentration at 72 h (in vivo [6]; lung lymph node, 175 mg/m^2): 4340 ng/g
concentration at 3 h (in vivo [6]; lung tissue (RT caud lung), 175 mg/m^2): 42900 ng/g
concentration at 3 h (in vivo [6]; lung tissue (RT cran lung), 175 mg/m^2): 32200 ng/g
concentration at 3 h (in vivo [6]; [16]): 32000 ng/g
concentration at 72 h (in vivo [6]; [16]): 3560 ng/g
concentration at 72 h (in vivo [6]; lung, right caudal lobe, 4.28 mg/kg/hr): 2720 ng/g
decrease of lung PTX concentration 72 hours following systemic administration ([7]; 3 hour animal 19P0837 vs 72 hour animal 19P0997): approximately 3.5 fold
PTX in lung tissue achieved ([7]; systemic administration (GMX001)): greater than 30000 ng/g
lung tissue concentration range ([7]; systemic drug delivery at 3 hours): 12,500-41,200 ng/g
Lung PTX concentration, RT caud lung [7, 17]: 28800 ng/g and 31600 ng/g
Lung PTX concentration, RT cran lung [7, 17]: 27000 ng/g and 27300 ng/g
Lung PTX concentration, RT mid lung [7, 17]: 41200 ng/g and 28300 ng/g
Lung PTX concentration, RT caud lung [7, 18]: 2070 ng/g
Lung PTX concentration, RT cran lung [7, 18]: 2660 ng/g
Lung PTX concentration, RT mid lung [7, 18]: 2590 ng/g
Lung PTX concentration, lung LN ([7]; systemic, 72 hour animal 19P0997, lung lymph node samples): 4240 ng/g
maximum plasma concentration MPC ([8]; 4.28 mg/kg/hr intravenously over three hours): 78.58 µM
average lung tissue concentration TC ([8]; samples immediately after systemic delivery): 37.9 µM
average lung tissue concentration TC [9]: 40.4 µM

Compound: N.N.[Cl][Pt][Cl] [cisplatin]
Cmax ([10]; systemic administration, read-out: Typical plasma Cmax): 30 µM
typical lung tissue Cmax ([10]; systemic delivery): 170 µM

Sputum levels [12]: 32 µg/mL
Cmax (in vivo [14]): 291 ng/mL
Compound: C[C@H]1COc2c(N3CCN(C)CC3)c(F)cc3c(=O)c(C(=O)O)cn1c23 [levofloxacin]
lung damage at pathology ([11]; following local delivery): No lung damage was observed
side effects ([11]; local delivery): no significant side effects
Typical plasma Cmax [13]: 5600 ng/mL
